Several values for one entry are separate records, joined by “and”; a condition that tells them apart may be missing. Identical values can stand only once. After the bases stand the sugars from the 5' end (letter, count) and the backbone: PS all phosphorothioate, else s phosphorothioate and o phosphodiester by linkage. Methylation of C is not given here. e = 2'-O-(2-methoxyethyl) (MOE); k = constrained ethyl (cEt); d = 2'-deoxy (DNA)

The target of one series is IRF4. As to conditions: ASO, MM.1R, 0.0625 µM.
In the case of AGCATATTCCAACAGG (sugars k3 d10 k3, PS), the target mRNA inhibition was -1%.

Staying with this series, now noted: ASO, MM.1R, 0.074 µM.
Turning to AGCATATTCCAACAGG (sugars k3 d10 k3, PS), the target mRNA inhibition is -8%.

Staying with this series, now noted: ASO, MM.1R, 0.222 µM.
Consider AGCATATTCCAACAGG (sugars k3 d10 k3, PS), for which the target mRNA inhibition was -6%.

Still in this series, the particulars now being: ASO, MM.1R, 0.25 µM.
Take AGCATATTCCAACAGG (sugars k3 d10 k3, PS): the target mRNA inhibition was 6%.

The series is the same for the next values; noted with them: ASO, MM.1R, 0.666 µM.
As for AGCATATTCCAACAGG (sugars k3 d10 k3, PS), the target mRNA inhibition stood at 19%.

Still in this series, the particulars now being: ASO, MM.1R, 1 µM.
For AGCATATTCCAACAGG (sugars k3 d10 k3, PS), the target mRNA inhibition came to 18%. On the same count and under the same terms, under TACAAGGTCTGAGTTG (sugars k3 d10 k3, PS) stands -6%. As to “TACTGCTTGAGGTTTT (sugars kkkdddddddddkeke, PS)”, the target mRNA inhibition stood at 7%.

For TAGAATGCATAACACG (sugars k3 d10 k3, PS), the target mRNA inhibition amounted to 8%. As to TAACGAGGTGCCTTAC (sugars k3 d10 k3, PS), the target mRNA inhibition turned out to be 13%. In the case of “AAGTGTCTAAAGTCCC (sugars kkdddddddddekeke, PS)”, the target mRNA inhibition was 13% and -1%.

On to GCGGACGCACGGAGAG (sugars k3 d10 k3, PS), for which the target mRNA inhibition is -9%. The same measure, in the same setting: to “TTATATACTGGTTGGT (sugars kkdddddddddkekek, PS)” belongs 50%; to CCCCAGCTATGCTCTA (sugars k3 d10 k3, PS), -30%; to GACAGCCGAAGCATTT (sugars k3 d10 k3, PS), 6%.

For “CCTCAGTTTGTGAAGC (sugars kkdddddddddekeke, PS)”, the target mRNA inhibition turned out to be 21%. In the case of “AGTTCATGTAAAGTCT (sugars kkdddddddddkdkdk, PS)”, the target mRNA inhibition is 32% and 47%. As for “ACTTTTAGAGAGGAGA (sugars kddddddddddkekek, PS)”, the target mRNA inhibition stood at 32%.

Consider “ATGTGTATTACTCTTA (sugars kddddddddddkekek, PS)”, for which the target mRNA inhibition was 17% and 4%. With “GGCACATCAATGTTTT (sugars kdddddddddkekeke, PS)”, the target mRNA inhibition was 9% and 6%. Consider “TGCTTGAGGTTTTCCT (sugars kkdddddddddekeke, PS)”, for which the target mRNA inhibition is 45%. Turning to TCCTGTAGTATGAGAA (sugars k3 d10 k3, PS), the target mRNA inhibition came to 22%. Same read-out and setting: to “AGTGATGTCAGGTTTT (sugars e1 k2 d9 k2 e2, PS)” belongs 39%; to “GTGATGTCAGGTTTTC (sugars e1 k2 d9 k2 e2, PS)”, 48%. Same read-out and setting: to TGTGAACCTGCTAAAG (sugars k3 d10 k3, PS) belongs -10%.

Still in this series, the particulars now being: ASO, MM.1R, 2 µM.
AGCATATTCCAACAGG (sugars k3 d10 k3, PS): the target mRNA inhibition was determined as 32%.

The series is the same for the next values; noted with them: ASO, MM.1R, 4 µM.
Consider AGCATATTCCAACAGG (sugars k3 d10 k3, PS), for which the target mRNA inhibition came out at 58%.

The series is the same for the next values; noted with them: ASO, SK-MEL-28, 0.185 µM.
For the sequence ACGGGAATTTCCATTG (sugars k3 d10 k3, PS), the target mRNA inhibition was 11% and 5% and 1%.

Staying with this series, now noted: ASO, SK-MEL-28, 4 µM.
On to ATAGGAAGCACTGGCA (sugars k3 d10 k3, PS), for which the target mRNA inhibition came out at 42%. For the sequence TGTCAATACTGAAAGG (sugars k3 d10 k3, PS), the target mRNA inhibition stood at 36%. As to TTTTAGTGTTACTTGC (sugars k3 d10 k3, PS), the target mRNA inhibition was 32%. As to TACACCTACACAGGCT (sugars k3 d10 k3, PS), the target mRNA inhibition worked out at 19%. For TCCCACTGTCACTATG (sugars k3 d10 k3, PS), the target mRNA inhibition stood at 15%.

On to AAACGCAGAGCCAGTA (sugars k3 d10 k3, PS), for which the target mRNA inhibition turned out to be 37%. For AGCATAAAAGGTTCCT (sugars k3 d10 k3, PS), the target mRNA inhibition was 45%. Turning to AGGGATGGAACAGTAA (sugars k3 d10 k3, PS), the target mRNA inhibition is 47%. With AGCATATTCCAACAGG (sugars k3 d10 k3, PS), the target mRNA inhibition was found to be 69%. Same read-out and setting: to ATGCATAGTGATGAGA (sugars k3 d10 k3, PS) belongs 45%. Take ATGGACATCTGCGGGT (sugars k3 d10 k3, PS): the target mRNA inhibition was determined as 50%. TGTAAGTGATAGGTAT (sugars k3 d10 k3, PS): the target mRNA inhibition is 53%.

On to GGAGACACATACATTT (sugars k3 d10 k3, PS), for which the target mRNA inhibition was found to be 22%.

Turning to TCTAAACCAGCATATT (sugars k3 d10 k3, PS), the target mRNA inhibition is 33%.

AATGATGGCAGTCTAC (sugars k3 d10 k3, PS): the target mRNA inhibition was found to be 33%.

CCCAAGTGAGGTCACC (sugars k3 d10 k3, PS): the target mRNA inhibition turned out to be 20%. As for CATAGCATTATCTACC (sugars k3 d10 k3, PS), the target mRNA inhibition is 43%. The same measure, in the same setting: under CATCACCGAACACACC (sugars k3 d10 k3, PS) stands 24%. Same read-out and setting: to GGTCACTTGGTTCTCT (sugars k3 d10 k3, PS) belongs 79%. With ACATATTCAATGCACC (sugars k3 d10 k3, PS), the target mRNA inhibition is 47%. For CTATAGTGTTCCAGGA (sugars k3 d10 k3, PS), the target mRNA inhibition stood at 66%. TCAAAGTCATTGCTCT (sugars k3 d10 k3, PS): the target mRNA inhibition came to 21%. With GAACACCATGCCCAAC (sugars k3 d10 k3, PS), the target mRNA inhibition was found to be 7%. CTAGTTTAAGGGTTAC (sugars k3 d10 k3, PS): the target mRNA inhibition worked out at 27%. As for ACGGGAATTTCCATTG (sugars k3 d10 k3, PS), the target mRNA inhibition worked out at 67%.

As for ACGAACGCGCAAAACC (sugars k3 d10 k3, PS), the target mRNA inhibition is 6%. The same measure, in the same setting: under AGAAAACTCTAACCCT (sugars k3 d10 k3, PS) stands 25%; under TGGTTCTCTATAGTGT (sugars k3 d10 k3, PS), 71%. As to AGACAAGTGCTAGGAT (sugars k3 d10 k3, PS), the target mRNA inhibition turned out to be 56%. Consider GTCCCCTCTACTTCAG (sugars k3 d10 k3, PS), for which the target mRNA inhibition amounted to 41%. For AATGTCACGCCCGCAA (sugars k3 d10 k3, PS), the target mRNA inhibition turned out to be 19%. Same read-out and setting: under GACTTAGAGGACAGTG (sugars k3 d10 k3, PS) stands 48%; under GCACATCAATGTTTTA (sugars k3 d10 k3, PS), 67%; under AGTTGTCTGGCTAGCA (sugars k3 d10 k3, PS), 80%. As to GCCCCGAATAGGACCC (sugars k3 d10 k3, PS), the target mRNA inhibition was 21%. For AATGGAGCATCCGCTT (sugars k3 d10 k3, PS), the target mRNA inhibition is -7%. On to AGGAACTAGTCGACAG (sugars k3 d10 k3, PS), for which the target mRNA inhibition stood at 40%. Take CAAGAGGTGCGAGTAC (sugars k3 d10 k3, PS): the target mRNA inhibition came out at 22%.

With TCAACCGCTGAACTGA (sugars k3 d10 k3, PS), the target mRNA inhibition is 35%. Take CTAGGTTTCAGTTGTA (sugars k3 d10 k3, PS): the target mRNA inhibition is 54%. In the case of AGCCACTATGGTAGGA (sugars k3 d10 k3, PS), the target mRNA inhibition was found to be 43%.

Consider AGTTTACACTGGATCT (sugars k3 d10 k3, PS), for which the target mRNA inhibition was 70% and 74%.

Take AAAAGCCCAAAATAGG (sugars k3 d10 k3, PS): the target mRNA inhibition is -12%.

As to TATAGAGCATCACTAT (sugars k3 d10 k3, PS), the target mRNA inhibition amounted to 41%.

Consider GCACACGCAGCCTCTA (sugars k3 d10 k3, PS), for which the target mRNA inhibition turned out to be 5%. As to CTGGACAGCCAAACAA (sugars k3 d10 k3, PS), the target mRNA inhibition was found to be 21%.

The series is the same for the next values; noted with them: ASO, SK-MEL-28, 5 µM.
Turning to ACGGGAATTTCCATTG (sugars k3 d10 k3, PS), the target mRNA inhibition was 57% and 61% and 82%.

Staying with this series, now noted: ASO, SK-MEL-28, 15 µM.
Regarding ACGGGAATTTCCATTG (sugars k3 d10 k3, PS), the target mRNA inhibition was 83% and 79% and 94%.

The values above are taken from the OligoGym collection.
